Patent US6737383B1, “Herbicidal oxadiazolidines” (priority 1999, dated 2004)

Experiments:
[1] = system: blackgrass; test: Test B pre/postemergence blackgrass; type: in vivo, Alopecurus myosuroides
Method in brief: (§1)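 Test chemicals in a non-phytotoxic solvent mixture with surfactant were sprayed preemergence onto planted seeds and postemergence onto plants 2 to 18 cm tall (1- to 4-leaf stage). After twelve to sixteen days in a greenhouse, injury was visually rated against untreated controls from 0 (no effect) to 10 (complete control).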

[2] = system: surinam grass; test: Test B pre/postemergence surinam grass; type: in vivo, Brachiaria decumbens
Method in brief: as §1

[3] = system: rape; test: Test B pre/postemergence rape; type: in vivo, Brassica napus
Method in brief: as §1

[4] = system: smallflower flatsedge; test: Test B flood test smallflower flatsedge; type: in vivo, Cyperus difformis
Method in brief: (§2)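 Read-out is a visual response score from 0 (no effect) to 10 (complete control), assigned by comparison with untreated controls. Treatment was applied at the 2-leaf stage, and plants stayed in the greenhouse for twelve to sixteen days before scoring.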

[5] = system: soybean; test: Test B pre/postemergence soybean; type: in vivo, Glycine max
Method in brief: as §1

[6] = system: bamyardgrass; test: Test B flood test barnyardgrass; type: in vivo, Echinochloa crus-galli
Method in brief: as §2

[7] = system: bedstraw; test: Test B pre/postemergence bedstraw; type: in vivo, Galium aparine; details: Postemergence
Method in brief: as §1

[8] = system: velvetleaf; test: Test B pre/postemergence velvetleaf; type: in vivo, Abutilon theophrasti
Method in brief: as §1

[9] = system: pigweed; test: Test B pre/postemergence pigweed; type: in vivo, Amaranthus retroflexus
Method in brief: as §1

[10] = system: cocklebur; test: Test B pre/postemergence cocklebur; type: in vivo, Xanthium strumarium
Method in brief: as §1

[11] = system: sugar beet; test: Test B pre/postemergence sugar beet; type: in vivo, Beta vulgaris
Method in brief: as §1

[12] = system: purple nutsedge; test: Test B pre/postemergence purple nutsedge; type: in vivo, Cyperus rotundus
Method in brief: as §1

[13] = system: wild oat; test: Test B pre/postemergence wild oat; type: in vivo, Avena fatua
Method in brief: as §1

[14] = system: morningglory; test: Test B pre/postemergence morningglory; type: in vivo, Ipomoea hederacea
Method in brief: as §1

[15] = system: corn; test: Test B pre/postemergence corn; type: in vivo, Zea mays
Method in brief: as §1

[16] = system: rice; test: Test B flood test rice; type: in vivo, Oryza sativa
Method in brief: as §2

[17] = Postemergence, Rate 62 g/ha, scale 0 to 10, 0 is no effect, 10 is complete control
[18] = Postemergence, Rate 125 g/ha, scale of 0 to 10 where 0 is no effect and 10 is complete control
[19] = Postemergence, Rate 250 g/ha, scale of 0 to 10, 0 is no effect, 10 is complete control
[20] = Preemergence, Rate 62 g/ha, scale of 0 to 10 where 0 is no effect and 10 is complete control
[21] = Preemergence, Rate 125 g/ha, scale of 0 to 10 where 0 is no effect and 10 is complete control
[22] = Preemergence, Rate 250 g/ha, scale 0 to 10 (0 no effect, 10 complete control)
[23] = Preemergence, Rate 500 g/ha, scale of 0 to 10 where 0 is no effect and 10 is complete control
[24] = Rate 500 g/ha, Postemergence, scale 0 to 10, 0 is no effect, 10 is complete control
[25] = Rate 62 g/ha, flood test species, Pre-emergence, visual evaluation after twelve to sixteen days
[26] = Rate 125 g/ha, under heading Pre-emergence, flood test species, visual evaluation after twelve to sixteen days
[27] = Rate 250 g/ha, Pre-emergence (flood test species), scale 0 to 10, 0 is no effect, 10 is complete control
[28] = Rate 500 g/ha, Pre-emergence section of Table B, 0 to 10 scale (0 no effect, 10 complete control)

CC(C)N(C(=O)n1oc(=O)n(CCC(=O)N(C)C)c1=O)c1ccccc1 [Compound 671]
Plant response rating, Blackgrass [1, 17]: 0
Blackgrass plant response rating [1, 18]: 6
Blackgrass plant response rating [1, 19]: 8
Blackgrass plant response rating [1, 20]: 5
Plant response rating, Blackgrass [1, 21]: 7
Plant response rating, Blackgrass [1, 22]: 8
Plant response rating, Blackgrass [1, 23]: 10
Blackgrass plant response rating [1, 24]: 8
Plant response rating, B. signalgrass [2, 17]: 0
Plant response rating, B. signalgrass [2, 18]: 1
B. signalgrass plant response rating [2, 19]: 6
B. signalgrass plant response rating [2, 20]: 4
Plant response rating, B. signalgrass [2, 21]: 6
Plant response rating, B. signalgrass [2, 22]: 7
Plant response rating, B. signalgrass [2, 23]: 9
B. signalgrass plant response rating [2, 24]: 8
Plant response rating, Rape [3, 17]: 0
Rape plant response rating [3, 18]: 0
Rape plant response rating [3, 20]: 0
Plant response rating, Rape [3, 21]: 0
Plant response rating, Rape [3, 22]: 0
Plant response rating, Rape [3, 23]: 8
Rape plant response rating [3, 24]: 2
Plant response rating, S. Flatsedge (0 to 10 scale, 0 is no effect, 10 is complete control) [4, 25]: 0
S. Flatsedge plant response rating (0 to 10 scale, 0 is no effect, 10 is complete control) [4, 26]: 0
S. Flatsedge plant response rating [4, 27]: 0
S. Flatsedge plant response rating [4, 28]: 0
Plant response rating, Soybean [5, 17]: 2
Soybean plant response rating [5, 18]: 2
Soybean plant response rating [5, 20]: 0
Plant response rating, Soybean [5, 21]: 0
Plant response rating, Soybean [5, 22]: 0
Plant response rating, Soybean [5, 23]: 3
Soybean plant response rating [5, 24]: 4
Plant response rating, Barnyardgrass (0 to 10 scale, 0 is no effect, 10 is complete control) [6, 25]: 0
Barnyardgrass plant response rating (0 to 10 scale, 0 is no effect, 10 is complete control) [6, 26]: 0
Barnyardgrass plant response rating [6, 27]: 0
Barnyardgrass plant response rating [6, 28]: 0
Bedstraw plant response rating ([7]; Rate 125 g/ha, scale of 0 to 10 where 0 is no effect and 10 is complete control): 0
Bedstraw plant response rating ([7]; Rate 250 g/ha, scale of 0 to 10, 0 is no effect, 10 is complete control): 0
Bedstraw plant response rating ([7]; Rate 500 g/ha, scale 0 to 10, 0 is no effect, 10 is complete control): 0
Plant response rating, Velvetleaf [8, 17]: 0
Velvetleaf plant response rating [8, 18]: 0
Velvetleaf plant response rating [8, 20]: 2
Plant response rating, Velvetleaf [8, 21]: 7
Plant response rating, Velvetleaf [8, 22]: 7
Plant response rating, Velvetleaf [8, 23]: 9
Velvetleaf plant response rating [8, 24]: 3
Plant response rating, Redroot pigweed [9, 17]: 0
Redroot pigweed plant response rating [9, 18]: 1
Redroot pigweed plant response rating [9, 20]: 0
Plant response rating, Redroot pigweed [9, 21]: 2
Plant response rating, Redroot pigweed [9, 22]: 10
Plant response rating, Redroot pigweed [9, 23]: 10
Redroot pigweed plant response rating [9, 24]: 5
Plant response rating, Cocklebur [10, 17]: 0
Cocklebur plant response rating [10, 18]: 0
Cocklebur plant response rating [10, 19]: 0
Cocklebur plant response rating [10, 20]: 0
Plant response rating, Cocklebur [10, 21]: 0
Plant response rating, Cocklebur [10, 22]: 0
Plant response rating, Cocklebur [10, 23]: 1
Cocklebur plant response rating [10, 24]: 1
Plant response rating, Sugarbeets [11, 17]: 0
Sugarbeets plant response rating [11, 18]: 0
Sugarbeets plant response rating [11, 20]: 1
Plant response rating, Sugarbeets [11, 21]: 9
Plant response rating, Sugarbeets [11, 22]: 9
Plant response rating, Sugarbeets [11, 23]: 9
Sugarbeets plant response rating [11, 24]: 3
Plant response rating, Nutsedge [12, 17]: 0
Nutsedge plant response rating [12, 18]: 0
Nutsedge plant response rating [12, 20]: 0
Plant response rating, Nutsedge [12, 21]: 2
Plant response rating, Nutsedge [12, 22]: 6
Plant response rating, Nutsedge [12, 23]: 6
Nutsedge plant response rating [12, 24]: 0
Plant response rating, Wild oats [13, 17]: 0
Wild oats plant response rating [13, 18]: 0
Wild oats plant response rating [13, 20]: 0
Plant response rating, Wild oats [13, 21]: 0
Plant response rating, Wild oats [13, 22]: 7
Plant response rating, Wild oats [13, 23]: 5
Wild oats plant response rating [13, 24]: 0
Plant response rating, Morningglory [14, 17]: 1
Morningglory plant response rating [14, 18]: 1
Morningglory plant response rating [14, 19]: 1
Morningglory plant response rating [14, 20]: 0
Plant response rating, Morningglory [14, 21]: 2
Plant response rating, Morningglory [14, 22]: 5
Plant response rating, Morningglory [14, 23]: 8
Morningglory plant response rating [14, 24]: 6
Plant response rating, Corn [15, 17]: 0
Corn plant response rating [15, 18]: 0
Corn plant response rating [15, 19]: 0
Corn plant response rating [15, 20]: 0
Plant response rating, Corn [15, 21]: 0
Plant response rating, Corn [15, 22]: 3
Plant response rating, Corn [15, 23]: 9
Corn plant response rating [15, 24]: 5
Plant response rating, Rice (0 to 10 scale, 0 is no effect, 10 is complete control) [16, 25]: 0
Rice plant response rating (0 to 10 scale, 0 is no effect, 10 is complete control) [16, 26]: 0
Rice plant response rating [16, 27]: 0
Rice plant response rating [16, 28]: 0
